Experimental data as given in PubChem BioAssay AID248 (DTP/NCI, 2004).
Several values for one entry are separate records, joined by “and”; a condition that tells them apart may be missing. Equal entries are not always repeated. Inconclusive results and toxic doses are left out.

Tested on: L1210 leukemia ip in BDF1 mice, survival T/C
Experiment: NCI In Vivo Anticancer Drug Screen. Data for tumor model L1210 Leukemia (intraperitoneal) in B6D2F1 (BDF1) mice
Conditions: endpoint: mean survival time, higher = longer survival
Method in brief: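 In this screen, tumor-bearing mice given compound are compared to those given vehicle, and their survival values are reported as a treated-to-control quotient.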

[1] = dose: 100.0 mg/kg/injection, schedule: Q04DX003 (ip), vehicle: saline with Tween-80
[2] = dose: 200.0 mg/kg/injection, schedule: Q04DX003 (ip), vehicle: saline with Tween-80
[3] = dose: 400.0 mg/kg/injection, schedule: Q04DX003 (ip), vehicle: saline with Tween-80
[4] = dose: 12.5 mg/kg/injection, schedule: Q01DX001 (ip), vehicle: saline
[5] = dose: 25.0 mg/kg/injection, schedule: Q01DX001 (ip), vehicle: saline with Tween-80
[6] = dose: 25.0 mg/kg/injection, schedule: Q01DX001 (ip), vehicle: saline
[7] = dose: 25.0 mg/kg/injection, schedule: Q01DX009 (ip), vehicle: Klucel (hydroxypropylcellulose) (HPC)
[8] = dose: 25.0 mg/kg/injection, schedule: Q04DX002 (ip), vehicle: Klucel (hydroxypropylcellulose) (HPC)
[9] = dose: 100.0 mg/kg/injection, schedule: Q01DX009 (ip), vehicle: Klucel (hydroxypropylcellulose) (HPC)
[10] = dose: 200.0 mg/kg/injection, schedule: Q01DX009 (ip), vehicle: Klucel (hydroxypropylcellulose) (HPC)
[11] = dose: 400.0 mg/kg/injection, schedule: Q01DX009 (ip), vehicle: Klucel (hydroxypropylcellulose) (HPC)
[12] = dose: 100.0 mg/kg/injection, schedule: Q04DX002 (ip), vehicle: Klucel (hydroxypropylcellulose) (HPC)
[13] = dose: 100.0 mg/kg/injection, schedule: Q01DX001 (ip), vehicle: carboxymethylcellulose (CMC)
[14] = dose: 200.0 mg/kg/injection, schedule: Q01DX001 (ip), vehicle: carboxymethylcellulose (CMC)
[15] = dose: 100.0 mg/kg/injection, schedule: Q01DX001 (ip), vehicle: saline with Tween-80
[16] = dose: 100.0 mg/kg/injection, schedule: Q01DX009 (ip), vehicle: saline with Tween-80
[17] = dose: 100.0 mg/kg/injection, schedule: Q04DX002 (ip), vehicle: saline with Tween-80
[18] = dose: 200.0 mg/kg/injection, schedule: Q01DX009 (ip), vehicle: saline with Tween-80
[19] = dose: 200.0 mg/kg/injection, schedule: Q04DX002 (ip), vehicle: saline with Tween-80
[20] = dose: 400.0 mg/kg/injection, schedule: Q01DX009 (ip), vehicle: saline with Tween-80
[21] = dose: 400.0 mg/kg/injection, schedule: Q04DX002 (ip), vehicle: saline with Tween-80
[22] = dose: 100.0 mg/kg/injection, schedule: Q01DX001 (ip), vehicle: saline
[23] = dose: 200.0 mg/kg/injection, schedule: Q01DX001 (ip), vehicle: saline
[24] = dose: 400.0 mg/kg/injection, schedule: Q01DX001 (ip), vehicle: saline
[25] = dose: 100.0 mg/kg/injection, schedule: Q04DX003 (ip), vehicle: Klucel (hydroxypropylcellulose) (HPC)
[26] = dose: 200.0 mg/kg/injection, schedule: Q04DX003 (ip), vehicle: Klucel (hydroxypropylcellulose) (HPC)
[27] = dose: 400.0 mg/kg/injection, schedule: Q04DX003 (ip), vehicle: Klucel (hydroxypropylcellulose) (HPC)
[28] = dose: 5.0 mg/kg/injection, schedule: Q01DX001 (ip), vehicle: carboxymethylcellulose (CMC)
[29] = dose: 10.0 mg/kg/injection, schedule: Q01DX001 (ip), vehicle: carboxymethylcellulose (CMC)
[30] = dose: 20.0 mg/kg/injection, schedule: Q01DX001 (ip), vehicle: carboxymethylcellulose (CMC)

CCCCOP(=O)(Cc1ccc(Cl)c(Cl)c1)OCCCC
T/C (dose: 100.0 mg/kg/injection, schedule: Q04DX002 (sc), vehicle: olive oil, sesame oil, peanut oil): 98 % of control | T/C (dose: 200.0 mg/kg/injection, schedule: Q04DX002 (sc), vehicle: olive oil, sesame oil, peanut oil): 102 % of control | T/C (dose: 400.0 mg/kg/injection, schedule: Q04DX002 (sc), vehicle: olive oil, sesame oil, peanut oil): 98 % of control

O=C(c1ccccn1)C12CC3CC(CC(C3)C1)C2
T/C [1]: 97 % of control | T/C [2]: 98 % of control | T/C [3]: 101 % of control

NC(CSS(=O)(=O)O)=NC1CC2CCC1C2 (centres undefined)
T/C (dose: 6.25 mg/kg/injection, schedule: Q01DX001 (ip), vehicle: saline): 97 % of control | T/C (dose: 6.25 mg/kg/injection, schedule: Q01DX009 (ip), vehicle: Klucel (hydroxypropylcellulose) (HPC)): 98 % of control | T/C (dose: 6.25 mg/kg/injection, schedule: Q01DX009 (ip), vehicle: saline): 95 % of control and 103 % of control | T/C (dose: 6.25 mg/kg/injection, schedule: Q04DX002 (ip), vehicle: saline): 112 % of control and 117 % of control | T/C [4]: 95 % of control | T/C (dose: 12.5 mg/kg/injection, schedule: Q01DX009 (ip), vehicle: Klucel (hydroxypropylcellulose) (HPC)): 95 % of control | T/C (dose: 12.5 mg/kg/injection, schedule: Q01DX009 (ip), vehicle: saline): 100 % of control and 91 % of control | T/C (dose: 12.5 mg/kg/injection, schedule: Q04DX002 (ip), vehicle: Klucel (hydroxypropylcellulose) (HPC)): 100 % of control | T/C (dose: 12.5 mg/kg/injection, schedule: Q04DX002 (ip), vehicle: saline): 101 % of control and 87 % of control | T/C [5]: 112 % of control | T/C [6]: 92 % of control | T/C [7]: 104 % of control | T/C (dose: 25.0 mg/kg/injection, schedule: Q01DX009 (ip), vehicle: saline): 94 % of control and 88 % of control | T/C [8]: 92 % of control | T/C (dose: 50.0 mg/kg/injection, schedule: Q04DX002 (ip), vehicle: saline): 117 % of control

CCCCN(Cc1ccccc1)C(=O)Nc1ccccc1
T/C [9]: 97 % of control | T/C [10]: 111 % of control | T/C [11]: 100 % of control

CCSC1(SCC)C2(CCCCC2)C(=O)C12CCCCC2
T/C [12]: 93 % of control | T/C (dose: 200.0 mg/kg/injection, schedule: Q04DX002 (ip), vehicle: Klucel (hydroxypropylcellulose) (HPC)): 96 % of control | T/C (dose: 400.0 mg/kg/injection, schedule: Q04DX002 (ip), vehicle: Klucel (hydroxypropylcellulose) (HPC)): 96 % of control

COC(=O)c1[nH]nc(-c2ccccc2)c1N
T/C [1]: 101 % of control | T/C [2]: 93 % of control | T/C [3]: 90 % of control

Cc1ccc(S(=O)(=O)Nc2ccc(Br)cc2)cc1
T/C [13]: 105 % of control | T/C [14]: 105 % of control | T/C (dose: 400.0 mg/kg/injection, schedule: Q01DX001 (ip), vehicle: carboxymethylcellulose (CMC)): 107 % of control

O=C(COc1ccccc1)NC(=S)Nc1ccc(C(=O)O)cc1
T/C [15]: 97 % of control | T/C [16]: 102 % of control and 89 % of control | T/C [17]: 97 % of control and 104 % of control | T/C (dose: 200.0 mg/kg/injection, schedule: Q01DX001 (ip), vehicle: saline with Tween-80): 95 % of control | T/C [18]: 105 % of control and 86 % of control | T/C [19]: 114 % of control and 90 % of control | T/C (dose: 400.0 mg/kg/injection, schedule: Q01DX001 (ip), vehicle: saline with Tween-80): 101 % of control | T/C [20]: 97 % of control and 89 % of control | T/C [21]: 107 % of control and 90 % of control

Oc1ccc(C=NCCN=Cc2ccc(O)cc2O)c(O)c1
T/C (dose: 8.0 mg/kg/injection, schedule: Q01DX009 (ip), vehicle: saline with Tween-80): 87 % of control | T/C (dose: 12.0 mg/kg/injection, schedule: Q01DX009 (ip), vehicle: saline with Tween-80): 89 % of control

COC(=O)c1cc(NS(=O)(=O)c2ccc(N)cc2)cc(C(=O)OC)c1
T/C [22]: 93 % of control | T/C [23]: 95 % of control | T/C [24]: 97 % of control

CCCCCCC(CO)CCCC (centres undefined)
T/C [25]: 97 % of control | T/C [26]: 97 % of control | T/C [27]: 100 % of control

Nc1nc2c(ncn2-c2cccc3ccccc23)c(=O)[nH]1
T/C [5]: 93 % of control | T/C (dose: 50.0 mg/kg/injection, schedule: Q01DX001 (ip), vehicle: saline with Tween-80): 119 % of control | T/C [15]: 93 % of control

N=C(N)SCc1ccc([N+](=O)[O-])cc1
T/C [22]: 103 % of control | T/C [23]: 97 % of control

CCOC(=O)C(Cc1c[nH]c2ccccc12)(NC(C)=O)C(=O)OCC
T/C [16]: 88 % of control | T/C [18]: 90 % of control | T/C [20]: 94 % of control

CCCCCCCCCCCCC(CC(=O)O)C(=O)N(CCO)CCO (centres undefined)
T/C [4]: 97 % of control | T/C [6]: 94 % of control | T/C (dose: 50.0 mg/kg/injection, schedule: Q01DX001 (ip), vehicle: saline): 91 % of control | T/C [23]: 97 % of control

CCCCCCCC[Se](=O)O
T/C [28]: 95 % of control | T/C [29]: 109 % of control | T/C [30]: 109 % of control

CC1(c2ccccc2O)Nc2ccccc2S1 (centres undefined)
T/C [1]: 92 % of control | T/C [2]: 92 % of control | T/C [3]: 96 % of control

CCN(CC)C(C)C(O)c1ccc2cc(Br)c3ccccc3c2c1 (centres undefined)
T/C (dose: 55.0 mg/kg/injection, schedule: Q01DX Z (ip), vehicle: methylcellulose (MC)): 95 % of control | T/C (dose: 83.0 mg/kg/injection, schedule: Q01DX Z (ip), vehicle: methylcellulose (MC)): 97 % of control | T/C (dose: 125.0 mg/kg/injection, schedule: Q01DX Z (ip), vehicle: methylcellulose (MC)): 92 % of control

O=P(NC(=S)OCCN1CC1)(NC(=S)OCCN1CC1)NC(=S)OCCN1CC1
T/C [13]: 107 % of control | T/C [14]: 96 % of control

CCCCC(=O)c1cc2ccccc2c2ccccc12
T/C [22]: 94 % of control | T/C [23]: 88 % of control | T/C [24]: 98 % of control

CC(C)CN(C)N=Nc1ccc(C(=N)N)cc1
T/C [28]: 94 % of control | T/C [29]: 97 % of control | T/C [30]: 97 % of control | T/C (dose: 40.0 mg/kg/injection, schedule: Q01DX001 (ip), vehicle: carboxymethylcellulose (CMC)): 92 % of control | T/C (dose: 80.0 mg/kg/injection, schedule: Q01DX001 (ip), vehicle: carboxymethylcellulose (CMC)): 91 % of control | T/C [13]: 105 % of control

CC(C)(C)C1(C)OCCCO1
T/C [17]: 101 % of control | T/C [19]: 108 % of control | T/C [21]: 87 % of control

C=CCN(CC=C)P(=O)(N1CC1)N1CC1C (centres undefined)
T/C (dose: 0.37 mg/kg/injection, schedule: Q01DX015 (ip), vehicle: carboxymethylcellulose (CMC)): 117 % of control | T/C (dose: 6.0 mg/kg/injection, schedule: Q01DX009 (ip), vehicle: saline): 90 % of control | T/C (dose: 10.0 mg/kg/injection, schedule: Q01DX001 (ip), vehicle: saline): 162 % of control

CC1=NNC(=O)C1CCO (centres undefined)
T/C [7]: 98 % of control | T/C (dose: 50.0 mg/kg/injection, schedule: Q01DX009 (ip), vehicle: Klucel (hydroxypropylcellulose) (HPC)): 98 % of control | T/C [9]: 92 % of control | T/C [25]: 89 % of control | T/C [10]: 95 % of control | T/C [26]: 96 % of control | T/C [11]: 97 % of control | T/C [27]: 100 % of control

NCCCNCCCN
T/C [8]: 103 % of control | T/C (dose: 50.0 mg/kg/injection, schedule: Q04DX002 (ip), vehicle: Klucel (hydroxypropylcellulose) (HPC)): 97 % of control | T/C [12]: 103 % of control and 117 % of control
